Source: article PMC6634946 (The FEBS journal, 2019)

Key:
Format in all cases: cell-based, human
[1] = test system: U-2 OS cells; assay: Western blot analysis of p53, p21 expression; details: 24 hours, (R)-5a effect at 5 and 10 μM
[2] = test system: SJSA-1 cells; assay: Caspase 3/7 activity assay; details: SJSA-1, 24 or 48 hours
[3] = test system: U-2 OS cells; assay: Caspase 3/7 activity assay; details: 24 or 48 hours
[4] = test system: U-2 OS cells; assay: Real-time PCR of p53-target genes; details: 6 hours, 10 μM (R)-5a, 5 μM RG7388, normalized to GAPDH
[5] = test system: U-2 OS cells; assay: Cell cycle analysis; details: 24 hours, 5 μM, control 55%

Row | Compound | expression of p53 and p21 protein [1] | induction of apoptosis (caspase 3/7 activity) [2] | induction of apoptosis (caspase 3/7 activity) [3] | MDM2 and CDKN1A transcripts [4] | percentage of S-phase cells [5] [%]
1 | COc1ccc(C2=N[C@@H](c3ccc(Cl)cc3)[C@@H](c3ccc(Cl)cc3)N2C(=O)N2CCNC(=O)C2)c(OC(C)C)c1 [Nutlin-3] | increased the expression of p21 and p53 |  |  |  | 
2 | COc1cc(C(=O)O)ccc1NC(=O)[C@@H]1N[C@@H](CC(C)(C)C)[C@](C#N)(c2ccc(Cl)cc2F)[C@H]1c1cccc(Cl)c1F [RG7388, Idasanutlin] | increased the expression of p21 and p53 | induced apoptosis only in SJSA-1 cells | not in U-2 OS cells | significant increase of MDM2 and CDKN1A transcripts | 0.5
3 | CN[C@@H]1C[C@H]2O[C@@](C)([C@@H]1OC)n1c3ccccc3c3c4c(c5c6ccccc6n2c5c31)C(=O)NC4 [Staurosporine] |  | induced apoptosis in both cell lines | induced apoptosis in both cell lines |  | 
